# According to paper PMC7841309, “Involvement of the Mitochondrial Protein Tyrosine Phosphatase PTPM1 in the Promotion of Conidiation, Development, and Pathogenicity in Colletotrichum graminicola” (Frontiers in Microbiology, 2021):
# Target: T1, CgPTPM1 (Colletotrichum graminicola, UniProt E3QMN0)
# T1 construct: gene GLRG_07262; full-length ORF (1869 bp cDNA, 622 residues) in pET28a, His-tag, E. coli BL21, Ni-NTA, about 74 kDa
# Assay: colorimetric phosphatase assay, […] nm
# Format: biochemical
# Conditions: 0.1 M Tris, 0.25 M NaCl, 5 mM EDTA, 10 mM DTT, pH 8.2, 37 C, 30 min
# T1 sequence (E3QMN0 entry or part of it): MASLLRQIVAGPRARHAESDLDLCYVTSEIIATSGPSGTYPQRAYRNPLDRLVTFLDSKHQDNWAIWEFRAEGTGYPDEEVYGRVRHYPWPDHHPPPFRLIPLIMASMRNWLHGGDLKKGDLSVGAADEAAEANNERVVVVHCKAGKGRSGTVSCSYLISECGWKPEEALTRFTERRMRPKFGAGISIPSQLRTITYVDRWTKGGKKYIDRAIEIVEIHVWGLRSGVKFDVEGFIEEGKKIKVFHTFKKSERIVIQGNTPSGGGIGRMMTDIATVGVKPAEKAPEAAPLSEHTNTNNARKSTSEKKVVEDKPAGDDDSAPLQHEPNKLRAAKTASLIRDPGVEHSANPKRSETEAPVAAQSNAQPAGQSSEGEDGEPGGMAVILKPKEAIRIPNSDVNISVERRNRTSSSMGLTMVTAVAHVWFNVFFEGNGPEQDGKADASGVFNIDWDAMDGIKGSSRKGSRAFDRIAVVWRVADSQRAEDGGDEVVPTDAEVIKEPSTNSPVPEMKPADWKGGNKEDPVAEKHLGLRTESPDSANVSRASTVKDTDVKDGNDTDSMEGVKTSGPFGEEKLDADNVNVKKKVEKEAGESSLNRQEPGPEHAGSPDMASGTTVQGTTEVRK
smiles,measurement,value
"O=[N+]([O-])c1ccc(OP(=O)(O)O)cc1 [pNPP, p-nitrophenyl phosphate]","colorimetric phosphatase assay, 405 nm","Using pNPP as a substrate, the protein phosphatase activity was detected using the colorimetric method"
